Laboratory results taken from patent US12371428B2 (Exelixis, Inc., priority 2019, dated 2025).
Structures can show the parent of a compound that is named as a salt.

Columns and labels:
[1] = biological target: Human MET (residues 956-1390) (Homo sapiens (Human), UniProt P08581); test: Human Met kinase assay, HTRF KinEase (Example D-2); format: biochemical; conditions: protocol of Example D-2 (other compounds); read-out: c-Met IC50
Summary of the method: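 MET kinase domain (956-1390), 0.1 ng/well, in buffer with 5 mM MgCl2, 1 mM DTT and 1 mM MnCl2, phosphorylated a biotinylated peptide at ATP Km for 40 min at RT; 10 concentrations, 3% DMSO final. EDTA-stopped HTRF read after 60 min; IC50 from a 4-parameter logistic fit.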

[2] = biological target: Human KDR (residues 790-1356) (Homo sapiens (Human), UniProt P35968); test: Human KDR kinase assay, HTRF KinEase (Example B-2); format: biochemical; conditions: protocol of Example B-2 (other compounds)
Summary of the method: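 Human KDR residues 790-1356 (0.1 ng/well) in buffer with 5 mM MgCl2, 1 mM MnCl2, 1 mM DTT, biotinylated peptide substrate, ATP at Km (4.0 μM), 3% DMSO, 10 compound concentrations; 40 min, room temperature. EDTA stop, streptavidin-XL665/Eu-TK antibody HTRF read 665/620 nm; 4-parameter IC50.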

[3] = biological target: Mer (phospho-Mer, MERTK-transfected 293A cells) (Homo sapiens (Human), UniProt Q12866); test: Mer autophosphorylation ELISA in transient transfected 293A cells (Example H); format: cell-based; conditions: cellular activity; Mer autophosphorylation ELISA in transient transfected 293A cells
Summary of the method: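 293A cells transiently transfected with human MERTK were treated 1 h in serum-free medium with an 8-point compound dilution (0.3% DMSO final). Lysates were assayed by phospho-Mer sandwich ELISA against a phospho-Mer standard; IC50 came from a 4-parameter logistic fit, normalised to DMSO (100%) and reference-inhibitor (0%) controls.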

[4] = biological target: Human MER (residues 528-999) (Homo sapiens (Human), UniProt Q12866); test: Human Mer kinase assay, HTRF KinEase (Example C-2); format: biochemical; conditions: protocol of Example C-2 (other compounds)
Summary of the method: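 Recombinant MER 528-999 (1 ng/well) in buffer with 5 mM MgCl2 and 1 mM DTT was reacted with biotinylated peptide and ATP at Km (40 μM) for 60 min at room temperature. EDTA stop with SA-XL665 and Eu3+ TK antibody, then 665/620 nm HTRF read; IC50 from 4-parameter fit.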

Sequence of Mer (phospho-Mer, MERTK-transfected 293A cells) (Q12866 21-999): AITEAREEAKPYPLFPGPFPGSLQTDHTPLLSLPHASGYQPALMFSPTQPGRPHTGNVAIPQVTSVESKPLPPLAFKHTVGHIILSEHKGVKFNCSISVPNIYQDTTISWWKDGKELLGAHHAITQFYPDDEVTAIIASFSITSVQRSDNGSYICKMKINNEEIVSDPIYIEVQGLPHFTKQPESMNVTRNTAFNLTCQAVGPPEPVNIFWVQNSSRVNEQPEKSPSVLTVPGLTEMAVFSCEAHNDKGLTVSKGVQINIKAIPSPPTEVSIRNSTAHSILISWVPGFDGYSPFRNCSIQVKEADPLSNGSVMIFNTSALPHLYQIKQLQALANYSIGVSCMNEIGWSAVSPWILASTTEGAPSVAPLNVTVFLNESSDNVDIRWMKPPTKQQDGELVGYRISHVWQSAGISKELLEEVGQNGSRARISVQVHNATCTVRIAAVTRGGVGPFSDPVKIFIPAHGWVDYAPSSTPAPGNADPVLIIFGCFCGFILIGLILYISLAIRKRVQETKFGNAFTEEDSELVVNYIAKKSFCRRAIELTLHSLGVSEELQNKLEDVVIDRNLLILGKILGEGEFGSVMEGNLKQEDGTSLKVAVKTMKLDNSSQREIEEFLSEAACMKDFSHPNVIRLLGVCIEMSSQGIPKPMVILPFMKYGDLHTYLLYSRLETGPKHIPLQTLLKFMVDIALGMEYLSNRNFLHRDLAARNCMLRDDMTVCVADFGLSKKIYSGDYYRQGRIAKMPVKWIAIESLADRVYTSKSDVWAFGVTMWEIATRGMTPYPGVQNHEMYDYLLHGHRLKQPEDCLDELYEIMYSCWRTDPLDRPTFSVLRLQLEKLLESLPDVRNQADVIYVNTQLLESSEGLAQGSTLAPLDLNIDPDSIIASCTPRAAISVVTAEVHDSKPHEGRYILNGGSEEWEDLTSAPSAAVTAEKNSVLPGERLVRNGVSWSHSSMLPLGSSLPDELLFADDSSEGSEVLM
Sequence of Human MER (residues 528-999) (Q12866 528-999): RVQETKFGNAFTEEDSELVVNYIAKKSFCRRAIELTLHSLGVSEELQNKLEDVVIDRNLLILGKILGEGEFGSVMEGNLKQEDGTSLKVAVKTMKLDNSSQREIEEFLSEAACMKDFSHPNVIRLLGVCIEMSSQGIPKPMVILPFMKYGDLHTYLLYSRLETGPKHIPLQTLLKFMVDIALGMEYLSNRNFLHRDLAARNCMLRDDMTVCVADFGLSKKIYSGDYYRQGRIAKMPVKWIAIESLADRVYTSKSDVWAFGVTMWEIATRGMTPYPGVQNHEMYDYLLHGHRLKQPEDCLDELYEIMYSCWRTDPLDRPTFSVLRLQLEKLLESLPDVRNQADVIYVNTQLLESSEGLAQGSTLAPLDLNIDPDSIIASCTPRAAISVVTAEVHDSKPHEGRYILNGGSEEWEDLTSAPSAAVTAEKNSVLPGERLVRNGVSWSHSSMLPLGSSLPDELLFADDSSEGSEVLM
Sequence of Human KDR (residues 790-1356) (P35968 790-1356): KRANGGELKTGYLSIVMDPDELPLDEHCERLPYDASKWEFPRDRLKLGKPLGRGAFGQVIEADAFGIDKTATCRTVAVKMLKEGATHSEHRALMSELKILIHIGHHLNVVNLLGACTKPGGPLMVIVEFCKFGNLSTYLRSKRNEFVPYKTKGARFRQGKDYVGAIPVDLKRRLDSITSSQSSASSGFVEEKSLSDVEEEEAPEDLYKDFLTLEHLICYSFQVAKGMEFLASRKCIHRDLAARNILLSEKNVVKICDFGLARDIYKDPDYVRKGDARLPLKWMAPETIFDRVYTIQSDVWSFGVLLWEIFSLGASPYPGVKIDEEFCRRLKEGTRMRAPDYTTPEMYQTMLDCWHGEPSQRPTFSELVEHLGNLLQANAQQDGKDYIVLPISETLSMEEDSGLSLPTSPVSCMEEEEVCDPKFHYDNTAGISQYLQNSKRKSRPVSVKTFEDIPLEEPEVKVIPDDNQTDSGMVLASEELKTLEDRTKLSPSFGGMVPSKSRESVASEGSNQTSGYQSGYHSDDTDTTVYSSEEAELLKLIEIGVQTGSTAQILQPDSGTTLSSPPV
Sequence of Human MET (residues 956-1390) (P08581 956-1390): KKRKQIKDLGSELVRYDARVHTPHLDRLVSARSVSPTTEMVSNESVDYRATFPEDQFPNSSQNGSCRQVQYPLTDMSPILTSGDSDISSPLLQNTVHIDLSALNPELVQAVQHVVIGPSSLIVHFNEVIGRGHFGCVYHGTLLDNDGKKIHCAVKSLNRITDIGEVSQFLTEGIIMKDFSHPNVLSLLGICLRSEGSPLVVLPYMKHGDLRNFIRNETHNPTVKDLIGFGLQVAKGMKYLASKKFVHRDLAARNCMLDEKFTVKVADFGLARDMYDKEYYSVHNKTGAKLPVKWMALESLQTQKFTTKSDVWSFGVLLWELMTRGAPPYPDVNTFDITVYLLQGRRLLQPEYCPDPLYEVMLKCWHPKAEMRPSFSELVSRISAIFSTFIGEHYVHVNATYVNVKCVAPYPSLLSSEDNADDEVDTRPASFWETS

Compound `Cc1nc(C)c(-c2ccc(F)cc2)c(O)c1C(=O)Nc1ccc(Oc2ccnc3ccc(OCCN4CCOCC4)nc23)c(F)c1` [Compound 355, N-[3-fluoro-4-[[6-(2-morpholin-4-ylethoxy)-1,5-naphthyridin-4-yl)oxy]phenyl]-5-(4-fluorophenyl)-4-hydroxy-2,6-dimethylpyridine-3-carboxamide] has an IC50 [1] of less than 100 nM, an IC50 [2] of less than 100 nM and an IC50 [3] of less than 100 nM. It also gave an IC50 [4] of less than 100 nM.
`COc1cc2nccc(Oc3ccc(NC(=O)c4nccn(-c5ccc(F)cc5)c4=O)cc3F)c2nc1OC` [Compound 379, N-[4-[(6,7-dimethoxy-1,5-naphthyridin-4-yl)oxy]-3-fluorophenyl]-4-(4-fluorophenyl)-3-oxopyrazine-2-carboxamide] showed an IC50 [1] of less than 100 nM, an IC50 [2] of less than 100 nM and an IC50 [3] of less than 100 nM. It also gave an IC50 [4] of less than 100 nM.
Compound `COc1ccc2nccc(Oc3ccc(NC(=O)c4nccn(-c5ccc(F)cc5)c4=O)cc3F)c2n1` [Compound 380, N-[3-fluoro-4-[(6-methoxy-1,5-naphthyridin-4-yl)oxy]phenyl]-4-(4-fluorophenyl)-3-oxopyrazine-2-carboxamide] has an IC50 [1] of less than 100 nM, an IC50 [2] greater than 300 nM and an IC50 [3] of less than 100 nM. The IC50 [4] was less than 100 nM.
In the case of `COc1cc2nccc(Oc3ccc(NC(=O)c4ccnn(-c5ccc(F)cc5)c4=O)cc3F)c2nc1OC` [Compound 386, N-[4-[(6,7-dimethoxy-1,5-naphthyridin-4-yl)oxy]-3-fluorophenyl]-2-(4-fluorophenyl)-3-oxopyridazine-4-carboxamide], the IC50 [1] is reported as less than 100 nM, the IC50 [2] is reported as less than 100 nM and the IC50 [3] is reported as less than 100 nM. For the same compound, the IC50 [4] was less than 100 nM.
`COc1cc2nccc(Oc3ncc(NC(=O)c4cn(C5CC5)cc(-c5ccc(F)cc5)c4=O)cc3F)c2cc1OC` [Compound 399, 1-cyclopropyl-N-[6-(6,7-dimethoxyquinolin-4-yl)oxy-5-fluoropyridin-3-yl]-5-(4-fluorophenyl)-4-oxopyridine-3-carboxamide] gave an IC50 [1] of less than 100 nM, an IC50 [2] greater than 300 nM and an IC50 [3] of less than 100 nM. The IC50 [4] was less than 100 nM.
`CCn1cc(C(=O)Nc2ccc(Oc3ccnc4cc(OC)c(OC)nc34)cc2)c(=O)c(-c2ccc(F)cc2)c1CO` [Compound 272, N-[4-[(6,7-Dimethoxy-1,5-naphthyridin-4-yl)oxy]phenyl]-1-ethyl-5-(4-fluorophenyl)-6-(hydroxymethyl)-4-oxopyridine-3-carboxamide] gave an IC50 [1] of less than 100 nM, an IC50 [2] of 100 to 300 nM and an IC50 [3] of less than 100 nM. The IC50 [4] was less than 100 nM.
`COc1cc2nccc(Oc3ccc(NC(=O)C4=C5CCCN5CC(c5ccc(F)cc5)C4=O)cc3F)c2nc1OC` (single isomer, unassigned; enantiomer 1) [Compound 374, N-[4-[(6,7-dimethoxy-1,5-naphthyridin-4-yl)oxy]-3-fluorophenyl]-6-(4-fluorophenyl)-7-oxo-2,3,5,6-tetrahydro-1H-indolizine-8-carboxamide, enantiomer 1] gave an IC50 [1] of less than 100 nM, an IC50 [2] greater than 300 nM and an IC50 [3] of less than 100 nM. The IC50 [4] was less than 100 nM.
Compound `COc1cc2nccc(Oc3ccc(NC(=O)c4cn(C)c(C)c(-c5ccc(F)cc5)c4=O)cc3Cl)c2nc1OC` [Compound 388, N-[3-chloro-4-[(6,7-dimethoxy-1,5-naphthyridin-4-yl)oxy]phenyl]-5-(4-fluorophenyl)-1,6-dimethyl-4-oxopyridine-3-carboxamide] has an IC50 [1] of less than 100 nM, an IC50 [2] of less than 100 nM and an IC50 [3] of less than 100 nM. For the same compound, the IC50 [4] was less than 100 nM.
With `COc1cc2nccc(Oc3ccc(NC(=O)c4c(C)cc(C)n(-c5ccc(F)cc5)c4=O)cc3)c2nc1OC` [Compound 288, N-[4-[(6,7-Dimethoxy-1,5-naphthyridin-4-yl)oxy]phenyl]-1-(4-fluorophenyl)-4,6-dimethyl-2-oxopyridine-3-carboxamide] the IC50 [1] was less than 100 nM, the IC50 [2] was less than 100 nM and the IC50 [3] was less than 100 nM. The IC50 [4] was less than 100 nM.
`COc1cc2nccc(Oc3ccc(NC(=O)c4cn(C)cc(-c5ccccc5)c4=O)cc3)c2nc1OC` [Compound 39, N-[4-[(6,7-Dimethoxy-1,5-naphthyridin-4-yl)oxy]phenyl]-1-methyl-4-oxo-5-phenylpyridine-3-carboxamide hydrochloride] was tested, and the IC50 [1] was less than 100 nM, the IC50 [2] was less than 100 nM and the IC50 [3] was less than 100 nM. The IC50 [4] was less than 100 nM.
`COc1cc2nccc(Oc3ccc(NC(=O)c4cn(C)c(C)c(-c5ccc(F)cc5)c4=O)c(F)c3F)c2nc1OC` [Compound 390, N-[4-[(6,7-dimethoxy-1,5-naphthyridin-4-yl)oxy]-2,3-difluorophenyl]-5-(4-fluorophenyl)-1,6-dimethyl-4-oxopyridine-3-carboxamide] was tested, and the IC50 [1] was less than 100 nM, the IC50 [2] was greater than 300 nM and the IC50 [3] was less than 100 nM. For the same compound, the IC50 [4] was less than 100 nM.
In the case of `Cc1ccc(C(=O)Nc2ccc(Oc3ccnc4ccc(OCCN(C)C)nc34)c(F)c2)c(=O)n1-c1ccc(F)cc1` [Compound 353, N-[4-[[6-[2-(dimethylamino)ethoxy]-1,5-naphthyridin-4-yl]oxy]-3-fluorophenyl]-1-(4-fluorophenyl)-6-methyl-2-oxopyridine-3-carboxamide], the IC50 [1] is reported as less than 100 nM, the IC50 [2] is reported as greater than 300 nM and the IC50 [3] is reported as less than 100 nM. For the same compound, the IC50 [4] was less than 100 nM.
For `COc1cnc2c(Oc3ccc(NC(=O)c4cnc(C)n(-c5ccc(F)cc5)c4=O)cc3)ccnc2c1` [Compound 266, 1-(4-Fluorophenyl)-N-[4-[(7-methoxy-1,5-naphthyridin-4-yl)oxy]phenyl]-2-methyl-6-oxopyrimidine-5-carboxamide], the IC50 [1] was less than 100 nM, the IC50 [2] was greater than 300 nM and the IC50 [3] was less than 100 nM. It also gave an IC50 [4] of less than 100 nM.
For `Cc1ccc2nccc(Oc3ccc(NC(=O)c4c(C)cc(C)n(-c5ccc(F)cc5)c4=O)cc3F)c2n1` [Compound 297, N-[3-Fluoro-4-[(6-methyl-1,5-naphthyridin-4-yl)oxy]phenyl]-1-(4-fluorophenyl)-4,6-dimethyl-2-oxopyridine-3-carboxamide], the IC50 [1] was less than 100 nM, the IC50 [2] was less than 100 nM and the IC50 [3] was less than 100 nM. It also gave an IC50 [4] of less than 100 nM.
Work on `CCOc1c(C(=O)Nc2ccc(Oc3ccnc4cc(OC)c(OC)nc34)c(F)c2)c(=O)c(-c2ccc(F)cc2)c(C)n1C` [Compound 369, N-[4-[(6,7-dimethoxy-1,5-naphthyridin-4-yl)oxy]-3-fluorophenyl]-2-ethoxy-5-(4-fluorophenyl)-1,6-dimethyl-4-oxopyridine-3-carboxamide] yielded an IC50 [1] greater than 300 nM, an IC50 [2] of 100 to 300 nM and an IC50 [3] of less than 100 nM. For the same compound, the IC50 [4] was less than 100 nM.
`Cc1ccc(C(=O)Nc2ccc(Oc3ccnc4ccc(OCCN5CCOCC5)nc34)c(F)c2)c(=O)n1-c1ccc(F)cc1` [Compound 351, N-[3-fluoro-4-[[6-(2-morpholin-4-ylethoxy)-1,5-naphthyridin-4-yl]oxy]phenyl]-1-(4-fluorophenyl)-6-methyl-2-oxopyridine-3-carboxamide] showed an IC50 [1] of less than 100 nM, an IC50 [2] greater than 300 nM and an IC50 [3] of less than 100 nM. The IC50 [4] was less than 100 nM.
`COc1cc2nccc(Oc3ccc(NC(=O)C4=C5CCCN5CC(c5ccc(F)cc5)C4=O)cc3F)c2nc1OC` (racemic) [Compound 373, N-[4-[(6,7-dimethoxy-1,5-naphthyridin-4-yl)oxy]-3-fluorophenyl]-6-(4-fluorophenyl)-7-oxo-2,3,5,6-tetrahydro-1H-indolizine-8-carboxamide] gave an IC50 [1] of less than 100 nM, an IC50 [2] greater than 300 nM and an IC50 [3] of less than 100 nM. The IC50 [4] was less than 100 nM.
`Cc1ncc(C(=O)Nc2ccc(Oc3ccnc4ccc(OCCN5CCOCC5)nc34)c(F)c2)c(O)c1-c1ccc(F)cc1` [Compound 352, N-[3-fluoro-4-[[6-(2-morpholin-4-ylethoxy)-1,5-naphthyridin-4 yl]oxy]phenyl]-5-(4-fluorophenyl)-4-hydroxy-6-methylpyridine-3-carboxamide] was tested, and the IC50 [1] was less than 100 nM, the IC50 [2] was 100 to 300 nM and the IC50 [3] was less than 100 nM. The IC50 [4] was less than 100 nM.
Work on `CCn1cc(C(=O)Nc2ccc(Oc3ccnc4cc(OC)c(OC)nc34)cc2)c(=O)c(-c2ccc(F)cc2C)c1CO` [Compound 284, N-[4-[(6,7-Dimethoxy-1,5-naphthyridin-4-yl)oxy]phenyl]-1-ethyl-5-(4-fluoro-2-methylphenyl)-6-(hydroxymethyl)-4-oxopyridine-3-carboxamide] yielded an IC50 [1] of less than 100 nM, an IC50 [2] greater than 300 nM and an IC50 [3] of less than 100 nM. It also gave an IC50 [4] of less than 100 nM.
Work on `CCn1cc(C(=O)Nc2ccc(Oc3ccnc4cc(OC)c(OC)nc34)c(F)c2)c(=O)c(-c2ccc(F)cc2C)c1CO` [Compound 283, N-[4-[(6,7-Dimethoxy-1,5-naphthyridin-4-yl)oxy]-3-fluorophenyl]-1-ethyl-5-(4-fluoro-2-methylphenyl)-6-(hydroxymethyl)-4-oxopyridine-3-carboxamide] yielded an IC50 [1] of less than 100 nM, an IC50 [2] greater than 300 nM and an IC50 [3] of less than 100 nM. It also gave an IC50 [4] of less than 100 nM.
